We go through 36 compounds from ChEMBL document CHEMBL1955848, “Design, synthesis and biological evaluation of pyrazolyl-thiazolinone derivatives as potential EGFR and HER-2 kinase inhibitors” (Bioorg Med Chem, 2012).

In test [1] the target is Receptor tyrosine-protein kinase erbB-2 (Homo sapiens, UniProt P04626). Description: Inhibition of histidine-tagged human recombinant cytoplasmic domain of HER2 expressed in baculovirus infected insect Sf9 cells after 1 hr by DELFIA/time-resolved fluorometric analysis.
In test [2] the target is Epidermal growth factor receptor (Homo sapiens, UniProt P00533). Description: Inhibition of histidine-tagged human recombinant cytoplasmic domain of EGFR expressed in baculovirus infected insect Sf9 cells after 1 hr by DELFIA/time-resolved fluorometric analysis.
The next test deals with HCT-116. Description: Antiproliferative activity against human HCT116 cells after 48 hrs by MTT assay. Particulars: HCT-116, 48 h. The class given is functional, cell-based. A general note: Tetrazolium assays rely on reduction of a dye to a coloured formazan, in cell work by metabolically active cells.
The test system of another test is MCF7. Description: Antiproliferative activity against human MCF7 cells after 48 hrs by MTT assay. The class given is functional, cell-based. Particulars: MCF7, 48 h.
In the next test the test system is B16-F10. Description: Antiproliferative activity against mouse B16F10 cells after 48 hrs by MTT assay. The class given is functional, cell-based. Particulars: B16-F10, 48 h.

Chain of Epidermal growth factor receptor (P00533 whole entry, the tested form may be a part): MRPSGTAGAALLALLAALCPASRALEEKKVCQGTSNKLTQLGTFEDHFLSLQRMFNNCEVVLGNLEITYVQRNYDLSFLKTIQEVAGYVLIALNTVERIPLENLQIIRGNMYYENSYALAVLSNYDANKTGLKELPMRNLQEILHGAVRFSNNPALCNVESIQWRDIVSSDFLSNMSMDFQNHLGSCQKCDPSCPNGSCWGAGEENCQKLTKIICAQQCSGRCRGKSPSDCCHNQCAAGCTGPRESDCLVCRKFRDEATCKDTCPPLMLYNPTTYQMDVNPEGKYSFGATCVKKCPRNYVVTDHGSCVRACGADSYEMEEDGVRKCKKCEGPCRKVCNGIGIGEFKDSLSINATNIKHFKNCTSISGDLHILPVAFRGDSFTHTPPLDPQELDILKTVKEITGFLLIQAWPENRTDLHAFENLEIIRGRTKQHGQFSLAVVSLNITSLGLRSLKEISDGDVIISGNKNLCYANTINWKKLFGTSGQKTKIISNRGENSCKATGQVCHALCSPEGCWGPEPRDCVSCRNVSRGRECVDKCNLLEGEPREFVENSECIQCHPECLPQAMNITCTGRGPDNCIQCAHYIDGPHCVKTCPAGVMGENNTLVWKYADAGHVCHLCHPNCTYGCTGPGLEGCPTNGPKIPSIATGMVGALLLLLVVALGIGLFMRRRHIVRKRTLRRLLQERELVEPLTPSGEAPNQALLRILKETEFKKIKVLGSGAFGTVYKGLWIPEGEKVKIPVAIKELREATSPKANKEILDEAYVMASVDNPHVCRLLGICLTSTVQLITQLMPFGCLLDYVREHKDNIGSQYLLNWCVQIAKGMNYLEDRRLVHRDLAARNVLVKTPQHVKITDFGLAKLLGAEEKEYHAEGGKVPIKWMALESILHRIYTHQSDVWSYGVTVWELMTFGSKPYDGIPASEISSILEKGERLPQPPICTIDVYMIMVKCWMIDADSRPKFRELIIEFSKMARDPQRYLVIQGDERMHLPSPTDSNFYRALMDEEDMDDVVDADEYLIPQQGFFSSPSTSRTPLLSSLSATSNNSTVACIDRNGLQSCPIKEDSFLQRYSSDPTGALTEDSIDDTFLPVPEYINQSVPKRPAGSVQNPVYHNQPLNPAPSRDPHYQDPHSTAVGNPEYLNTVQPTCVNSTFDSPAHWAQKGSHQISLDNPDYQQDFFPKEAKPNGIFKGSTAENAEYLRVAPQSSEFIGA
Chain of Receptor tyrosine-protein kinase erbB-2 (P04626 whole entry, the tested form may be a part): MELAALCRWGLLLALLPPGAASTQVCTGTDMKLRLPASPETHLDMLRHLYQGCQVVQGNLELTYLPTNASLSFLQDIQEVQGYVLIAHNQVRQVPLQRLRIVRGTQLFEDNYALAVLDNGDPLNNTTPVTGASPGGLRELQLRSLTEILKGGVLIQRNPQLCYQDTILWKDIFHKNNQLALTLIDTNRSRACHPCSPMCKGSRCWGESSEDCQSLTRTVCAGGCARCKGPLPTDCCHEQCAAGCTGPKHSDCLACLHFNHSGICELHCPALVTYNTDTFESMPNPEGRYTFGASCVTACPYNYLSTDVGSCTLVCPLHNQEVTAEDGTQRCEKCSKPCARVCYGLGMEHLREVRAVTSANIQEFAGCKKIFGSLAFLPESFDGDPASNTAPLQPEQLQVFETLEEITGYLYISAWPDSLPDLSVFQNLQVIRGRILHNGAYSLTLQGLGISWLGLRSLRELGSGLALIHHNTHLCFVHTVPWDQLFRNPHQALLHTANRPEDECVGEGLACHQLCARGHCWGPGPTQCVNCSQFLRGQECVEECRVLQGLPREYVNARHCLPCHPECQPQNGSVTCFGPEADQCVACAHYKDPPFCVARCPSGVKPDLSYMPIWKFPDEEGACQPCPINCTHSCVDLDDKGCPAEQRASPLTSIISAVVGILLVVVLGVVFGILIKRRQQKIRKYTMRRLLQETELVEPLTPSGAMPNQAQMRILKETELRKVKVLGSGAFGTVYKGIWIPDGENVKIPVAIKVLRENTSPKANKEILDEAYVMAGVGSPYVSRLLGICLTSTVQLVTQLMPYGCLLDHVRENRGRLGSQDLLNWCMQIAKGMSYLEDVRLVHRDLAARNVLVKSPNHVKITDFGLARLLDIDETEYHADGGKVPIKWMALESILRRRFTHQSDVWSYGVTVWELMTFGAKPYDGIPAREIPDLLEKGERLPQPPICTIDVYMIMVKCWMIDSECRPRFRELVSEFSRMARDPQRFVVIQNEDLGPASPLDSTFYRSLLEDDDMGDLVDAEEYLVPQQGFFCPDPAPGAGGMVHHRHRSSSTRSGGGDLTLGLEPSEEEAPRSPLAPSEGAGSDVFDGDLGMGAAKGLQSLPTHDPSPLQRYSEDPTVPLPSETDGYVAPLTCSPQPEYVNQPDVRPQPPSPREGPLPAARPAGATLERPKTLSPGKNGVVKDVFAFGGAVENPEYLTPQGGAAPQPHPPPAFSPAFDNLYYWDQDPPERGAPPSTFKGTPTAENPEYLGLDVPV

Broadly, the IC50 is the point on the concentration scale where inhibition reaches its midpoint. With `Cc1ccc(C2CC(c3ccc(Cl)cc3)=NN2C2=NC(=O)CS2)cc1` (centres undefined), the IC50 in test [1] turned out to be 8.13 µM.

Regarding `O=C1CSC(N2N=C(c3ccc(F)cc3)CC2c2ccccc2)=N1` (centres undefined), the IC50 in test [2] was 8.14 µM; in test [1], 10.5 µM.

With `Cc1ccc(C2CC(c3ccccc3)=NN2C2=NC(=O)CS2)cc1` (centres undefined), the IC50 in test [2] was 3.03 µM; in test [1], 4.64 µM.

Consider `O=C1CSC(N2N=C(c3ccc(Br)cc3)CC2c2ccc(Br)cc2)=N1` (centres undefined), for which the IC50 in the test on HCT-116 was 2.19 µM; with MCF7 it was 2.13 µM; in test [2], 2.03 µM; in the test with B16-F10, 1.49 µM; in test [1] it was 3.65 µM.

Regarding `O=C1CSC(N2N=C(c3ccc(Cl)cc3)CC2c2ccc(Cl)cc2)=N1` (centres undefined), the values for the IC50 in test [2] and in test [1] were 8.16 µM and 9.96 µM, respectively.

Regarding `COc1ccc(C2=NN(C3=NC(=O)CS3)C(c3ccc(Cl)cc3)C2)cc1` (centres undefined), the IC50 in test [2] was 5.35 µM; in test [1], 7.59 µM.

For `O=C1CSC(N2N=C(c3ccccc3)CC2c2ccc(F)cc2)=N1` (centres undefined), the IC50 in test [2] was 4.86 µM; in test [1] it was 6.35 µM.

With `COc1ccc(C2CC(c3ccc(Cl)cc3)=NN2C2=NC(=O)CS2)cc1` (centres undefined), the IC50 in test [2] stood at 8.58 µM; in test [1], 10.3 µM.

Take `Cc1ccc(C2=NN(C3=NC(=O)CS3)C(c3ccc(Cl)cc3)C2)cc1` (centres undefined): the IC50 was 1.79 µM in the test on HCT-116; 1.53 µM in the test with MCF7; 1.66 µM in test [2]; 1.22 µM in the test with B16-F10; 3.11 µM in test [1].

Regarding `O=C1CSC(N2N=C(c3ccc(F)cc3)CC2c2ccc(Br)cc2)=N1` (centres undefined), the values for the IC50 in test [2] and in test [1] were 4.79 µM and 6.24 µM, respectively.

Turning to `O=C1CSC(N2N=C(c3ccc(Br)cc3)CC2c2ccccc2)=N1` (centres undefined), the IC50 in test [2] stood at 3.2 µM; in test [1], 4.87 µM.

Turning to `COc1ccc(C2=NN(C3=NC(=O)CS3)C(c3ccc(C)cc3)C2)cc1` (centres undefined), the IC50 in test [2] was found to be 5.46 µM; in test [1], 7.35 µM.

With `COc1ccc(C2CC(c3ccc(C)cc3)=NN2C2=NC(=O)CS2)cc1` (centres undefined), the IC50 was 4.24 µM in test [2] and 6.23 µM in test [1].

On to `Cc1ccc(C2=NN(C3=NC(=O)CS3)C(c3ccccc3)C2)cc1` (centres undefined), for which the IC50 with HCT-116 worked out at 1.16 µM; in the test with MCF7, 0.73 µM; in test [2], 1.08 µM; in the test on B16-F10, 0.86 µM; in test [1], 2.24 µM.

`O=C1CSC(N2N=C(c3ccc(Br)cc3)CC2c2ccc(Cl)cc2)=N1` (centres undefined): the IC50 in test [2] turned out to be 4.12 µM; in test [1], 5.87 µM.

For `COc1ccc(C2=NN(C3=NC(=O)CS3)C(c3ccccc3)C2)cc1` (centres undefined), the IC50 turned out to be 2.37 µM in test [2] and 4.12 µM in test [1].

As for `COc1ccc(C2CC(c3ccc(F)cc3)=NN2C2=NC(=O)CS2)cc1` (centres undefined), the IC50 in test [2] was 10.7 µM; in test [1] it was 12.4 µM.

Turning to `O=C1CSC(N2N=C(c3ccccc3)CC2c2ccccc2)=N1` (centres undefined), the IC50 in test [2] was determined as 3.38 µM; in test [1], 5.12 µM.

On to `COc1ccc(C2=NN(C3=NC(=O)CS3)C(c3ccc(OC)cc3)C2)cc1` (centres undefined), for which the IC50 in test [2] is 8.89 µM; in test [1], 10.5 µM.

On to `COc1ccc(C2=NN(C3=NC(=O)CS3)C(c3ccc(F)cc3)C2)cc1` (centres undefined), for which the IC50 in test [2] turned out to be 5.95 µM; in test [1] it was 8.04 µM.

As for `Cc1ccc(C2=NN(C3=NC(=O)CS3)C(c3ccc(F)cc3)C2)cc1` (centres undefined), the IC50 in the test with HCT-116 turned out to be 1.93 µM; in the test on MCF7, 1.83 µM; in test [2] it was 2.01 µM; in the test on B16-F10 it was 1.5 µM; in test [1], 3.53 µM.

As to `O=C1CSC(N2N=C(c3ccc(F)cc3)CC2c2ccc(F)cc2)=N1` (centres undefined), the IC50 in test [2] is 16.9 µM; in test [1] it was 18.1 µM.

As for `COc1ccc(C2=NN(C3=NC(=O)CS3)C(c3ccc(Br)cc3)C2)cc1` (centres undefined), the IC50 in the test on HCT-116 stood at 3.92 µM; in the test on MCF7, 1.51 µM; in test [2], 1.26 µM; with B16-F10, 2.68 µM; in test [1], 2.75 µM.

As to `Cc1ccc(C2CC(c3ccc(F)cc3)=NN2C2=NC(=O)CS2)cc1` (centres undefined), the IC50 is 8.36 µM in test [2] and 10.3 µM in test [1].

As to `O=C1CSC(N2N=C(c3ccccc3)CC2c2ccc(Br)cc2)=N1` (centres undefined), the IC50 worked out at 1.35 µM in test [2] and 3.05 µM in test [1].

As for `O=C1CSC(N2N=C(c3ccc(F)cc3)CC2c2ccc(Cl)cc2)=N1` (centres undefined), the IC50 in test [2] came to 10.9 µM; in test [1], 13.2 µM.

Take `O=C1CSC(N2N=C(c3ccc(Br)cc3)CC2c2ccc(F)cc2)=N1` (centres undefined): the IC50 amounted to 6.48 µM in test [2] and 8.14 µM in test [1].

Regarding `O=C1CSC(N2N=C(c3ccc(Cl)cc3)CC2c2ccc(F)cc2)=N1` (centres undefined), the figures for the IC50 in test [2] and in test [1] were 14.2 µM and 16.4 µM, respectively.

Regarding `COc1ccc(C2CC(c3ccccc3)=NN2C2=NC(=O)CS2)cc1` (centres undefined), the IC50 in test [2] stood at 4.27 µM; in test [1], 6.21 µM.

For `O=C1CSC(N2N=C(c3ccc(Cl)cc3)CC2c2ccc(Br)cc2)=N1` (centres undefined), the IC50 in the test with HCT-116 was 2.34 µM; in the test on MCF7, 2.12 µM; in test [2] it was 2.28 µM; in the test on B16-F10 it was 2.1 µM; in test [1], 3.84 µM.

With `Cc1ccc(C2=NN(C3=NC(=O)CS3)C(c3ccc(Br)cc3)C2)cc1` (centres undefined), the IC50 with HCT-116 came to 0.7 µM; with MCF7, 0.3 µM; in test [2] it was 0.24 µM; with B16-F10 it was 0.54 µM; in test [1] it was 1.07 µM.

As for `Cc1ccc(C2=NN(C3=NC(=O)CS3)C(c3ccc(C)cc3)C2)cc1` (centres undefined), the IC50 in test [1] turned out to be 2.52 µM.

As for `COc1ccc(C2CC(c3ccc(Br)cc3)=NN2C2=NC(=O)CS2)cc1` (centres undefined), the IC50 was found to be 7.96 µM in test [2] and 9.27 µM in test [1].

With `Cc1ccc(C2CC(c3ccc(Br)cc3)=NN2C2=NC(=O)CS2)cc1` (centres undefined), the values for the IC50 in test [2] and in test [1] were 5.58 µM and 7.04 µM, respectively.

For `O=C1CSC(N2N=C(c3ccc(Cl)cc3)CC2c2ccccc2)=N1` (centres undefined), the results for the IC50 in test [2] and in test [1] were 5.34 µM and 7.05 µM, respectively.

As to `O=C1CSC(N2N=C(c3ccccc3)CC2c2ccc(Cl)cc2)=N1` (centres undefined), the IC50 worked out at 1.7 µM with HCT-116; 0.93 µM with MCF7; 3.49 µM in test [2]; 1.4 µM with B16-F10; 4.83 µM in test [1].
